Patent publication US12060360B2, “Lysyl oxidase inhibitors” (The Institute of Cancer Research: Royal Cancer Hospital, priority 2017, dated 2024)
pIC50: −log10 of the molar value.

Assays:
[1] = molecular target: T1, LOX (Mus musculus, UniProt P28301); test: LOX activity in cysts assay (LOX-roGFP2 biosensor, MDCK cysts); format: cell-based; conditions: MDCK cysts, roGFP2 ratio at basal surface; read-out: LOX biosensor IC50 (cyst)
T1 construct: Full length LOX cDNA was then PCR cloned into pEGFP-N1 (Clonetech), or biosensor vector proGFP2-N1; expressed in transfected cells; host or cells: MDCK cells grown as cysts on Matrigel, G418-selected
T1 sequence (P28301 163-411): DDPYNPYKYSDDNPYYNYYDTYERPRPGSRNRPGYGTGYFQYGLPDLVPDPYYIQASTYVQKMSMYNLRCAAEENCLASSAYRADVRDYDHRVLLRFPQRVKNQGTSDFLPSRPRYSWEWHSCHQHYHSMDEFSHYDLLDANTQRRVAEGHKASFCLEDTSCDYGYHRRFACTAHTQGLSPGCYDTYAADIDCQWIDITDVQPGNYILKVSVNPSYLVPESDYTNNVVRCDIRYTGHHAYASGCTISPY
Outline: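 Live MDCK cysts grown 10 days on Matrigel and expressing mouse LOX fused to the roGFP2 redox biosensor, with inhibitors added 30 min before confocal imaging. Oxidised/reduced ratio (405/488 nm excitation, 500–530 nm emission) at the basal cyst surface taken as LOX activity. DMSO defines 0% and 1 mM BAPN 100% inhibition.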

[2] = test system: PDAC TRP53R172H (p53 mut) cells (mouse pancreatic carcinoma); test: PDAC allografts, primary tumour volume T/C; format: in vivo; conditions: 200 mg/kg po qd; ratio of average tumour volume treated/vehicle control; p<0.05
Procedure: (§1) All procedures involving animals were approved by the Animal Welfare and Ethical Review Body of the Institute of Cancer Research and Cancer Research UK Manchester Institute in accordance with National Home Office regulations under the Animals (Scientific Procedures) Act 1986 and according to the guidelines of the Committee of the National Cancer Research Institute Tumour size was determined by caliper measurements of tumour length, width and depth and volume was calculated as volume=0.5236×length×width×depth (mm).
PDAC allografts: CD1 nu/nu female mice at 6 weeks of age were inoculated subcutaneously in the right flank with 2×10^6 PDAC TRP53R172H (p53 mut) cells at 100 ul suspension per animal. In some examples, the oral dosing by metal gavage commences one day after cells inoculation, at 0.2 ml/20 g bodyweight per animal once daily for 2-4 weeks, with compound dissolved in 5.25% tween20/saline or 5% DMSO/water. In other examples, groups of 7-8 mice were assigned to treatment following stratified allocation of tumour volumes with a median size of circa 100 mm^3. […] Control animals received a similar dosage of vehicle (5.25% tween20/saline). Tumours and weights are measured twice weekly using calipers. At the end of the study the animals are culled, and samples taken, fixed or snap frozen in liquid nitrogen. Frozen samples kept at −80 degree centigrade until being analysed and the fixed samples stained according to the desired marker.
(§2) For therapeutic efficacy assessment, the ratio of average tumour volume between compound treated and vehicle control treated (T/C) is calculated. Reduction in tumour volume in the compound treated group compared to vehicle-treated control group results in T/C<1. The efficacy of LOX inhibitors described in this invention, as measured by T/C in a pancreatic cancer model, a colorectal cancer model and a breast cancer model is shown in Table 2 and is significant (p<0.05) for all the data presented.

[3] = test system: MDA-MB-231 human breast adenocarcinoma; test: MDA-MB-231 xenografts, primary tumour volume T/C; format: in vivo; conditions: 200 mg/kg po qd, ratio of average tumour volume treated/vehicle control, p<0.05
Procedure: as §1
MDA-MB-231 xenografts. Ncr nude female mice at 6 weeks old from Charles River were injected into the third upper nipple mammary fat pad with MDA-MB-231 Luc 4×10^6 in 100 ul PB (50:50 Matrigel). When tumours reach a mean of 80 mm^3 around 10 days post cell inoculation the animals are allocated in 4 groups of 8. LOX inhibitor treatment is then administrated by oral gavage dosing, at 0.2 ml/20 g bodyweight once daily for up to 28 consecutive days. Tumours and weights are measured twice weekly using calipers and the animals can be imaged using non invasive method by bioluminescence using IVIS 200 imaging machine, weekly using 150 mg/kg luciferin administrate intraperitoneal or subcutaneous. At the end of the study the animals are culled, and samples taken, fixed or snap frozen in liquid nitrogen. Frozen samples kept at −80 degree centigrade until being analyzed and the fixed samples stained according to desired marker.
as §2

[4] = test system: MMTV-PyMT breast transgenic model primary tumour; test: MMTV-PyMT transgenic mouse breast cancer model, primary tumour T/C; format: in vivo; conditions: 200 mg/kg po qd; ratio of average tumour volume treated/vehicle control; p<0.05
Procedure: as §1
MMTV-PyMT (Guy et al, 1992) (FVB) female mice were randomized by non-statistical methods to LOX inhibitor treatment groups from day 70 post-birth, when animals had no detectable tumour. Mice were treated daily by oral gavage with LOX inhibitor in vehicle, or daily vehicle (5% DMSO/2.5% Tween20 in water) by oral gavage. Tumour size was determined unblinded by caliper measurements of tumour length, width and depth and volume was calculated as 0.5236×length×width×depth (mm). In all experiments, mice were humanely killed and mammary tumours and lungs were collected when the primary tumours reached ethical limits or signs of ill health.
as §2

SMILES: CCOc1ccc(N2C[C@H]3CN(CCCC#N)C[C@@H]2C(C)(C)C3)cc1 [Example 42, 4-((1R,5S)-6-(4-ethoxyphenyl)-9,9-dimethyl-3,6-diazabicyclo[3.2.2]nonan-3-yl)butanenitrile]
- pIC50 [1]: > 6.20
- T/C PDAC R172H (p53 mut) (mouse pancreatic carcinoma) - primary tumour [2]: 0.44
- response vs control in vivo at 200 mg/kg [3]: 41%
- T/C MMT-PyMT breast transgenic model - primary tumour [4]: 0.50
